Measurements published in patent US7655392B2, “Quenching methods for red blood cell inactivation process” (priority 2004, dated 2010).
Read-outs that look alike come from different tables or passages of the source.

Assays:
Serratia marcescens = format: cell-based; conditions: no PIC-1, 20 mM glutathione
red blood cells = format: cell-based; conditions: unit 6: 0.2 mM GSH+2 eq base, no PIC-1
Experimental: In another assay, the rabbit polyclonal sera may be reacted with treated red blood cells. After washing off unbound antibody, a FITC labeled goat anti-rabbit Fab′2 fragment (anti H+L chains, Caltag) is added. The binding of FITC label to the red blood cells correlates with the amount of acridine bound to the red blood cell surface, and is assessed by FACScan™ analysis (Becton, Dickinson and Co., NJ). The relative modification of the red blood cells is determined from the FACScan™ mean fluorescence value.
A 20 mL sample of leukoreduced whole blood (Blood Source, Sacramento, Calif.) was centrifuged at 4,100×g for 5 minutes at room temperature in each of four 50 mL centrifuge tubes. The supernatant was removed from each tube to provide red cell concentrate (RCC). […] For each washed RCC, cells were resuspended in 5 mL of the solution used for washing. This is now referred to as the RBC test sample. […] These samples were incubated for 20 hours at room temperature. After incubation, the RBC were washed in BBS (Blood Bank Saline, 0.9% saline, unbuffered, Fisher Scientific) and were diluted to a final hematocrit of 4%. A 25 μL aliquot of each was mixed with 15 μL of rabbit polyclonal anti-acridine sera diluted 1:100 in BBS and the mixture was incubated at 37° C. for 30 minutes. The cells were subsequently washed with 1.5 mL BBS. After washing was complete, the cells were mixed with 50 μL of FITC labeled goat anti-rabbit Fab′2 fragment (1:64 dilution in BBS) and incubated at 37° C. for 30 minutes. […] Note that the quenching improves as glutathione is neutralized with increasing amounts of sodium hydroxide.
The FACScan analysis of the binding of rabbit anti-acridine sera to treated red cells was used to assess a variety of quenching conditions. […] The tables represent data from two different experiments, each with samples treated under standard conditions or with 20 mM neutralized glutathione. […] The data within an experiment provides the relative efficacy of the various treatments. Because the assay may depend on the lot of red blood cells used, the absolute values of mean fluorescence may vary from one study to the next, such that relative values should only be compared within a given experiment. […] Neutralized glutathione at 20 mM results in close to background levels.
An untreated control sample as well as a standard sample (co-addition of 2 mM acidic glutathione with 0.2 mM PIC-1) were also assessed.
Full units of red cell concentrates (Interstate Blood Bank, Inc., Memphis, Tenn.) were leukoreduced. A volume of 200 mL of this RCC (80% hematocrit) was mixed with 94 mL of Erythrosol or 100 mL of Adsol (Baxter Healthcare Corp., Deerfield, Ill.) as control (unit 1). A volume of 20 mL 8% dextrose was used to dissolve PIC-1 (mg) and acid glutathione (mg) and added to one unit to provide 0.2 mM PIC-1 and 2 mM glutathione (unit 2). […] For the glutathione, 1.2 mL of 10 N NaOH was added (2 equivalents). The PIC-1 was mixed with the unit, followed 1 minute later (unit 3) or 5 minutes later (unit 4) by glutathione. For unit 5, neutralized glutathione was mixed first, followed 10 minutes later by the PIC-1. […] All units were mixed by grasping the ends of the blood bag and mixing in a FIG. 8 motion 30 times. These were then incubated at room temperature for 20 hours total. A compound adsorption device (CAD), comprising a polymeric resin contained within a mesh pouch, was used for all but the control sample. This device is intended to remove residual PIC-1, PIC-1 breakdown products, and glutathione from the samples. Samples were incubated for 8 hours, then transferred to a second blood bag containing the CAD and incubated for an additional 12 hours. Following the room temperature incubation, samples were transferred to a refrigerator (4° C.) and stored up to 43 days.

Which “Log S. marcescens reduction” value (Serratia marcescens; 0 eq base) does the source give for `N[C@@H](CCC(=O)N[C@@H](CS)C(=O)NCC(=O)O)C(=O)O` [glutathione, γ-L-glutamyl-L-cysteinyl-glycine] here?
Its value is 0.02 Log.

What about the “Log S. marcescens titer” value (Serratia marcescens; 0 eq base) of the same compound?
Its value is 7.0 Log.

And the “Log S. marcescens reduction” value (Serratia marcescens; 2 eq base)?
The value was 0.31 Log.

And the “Log S. marcescens titer” value (Serratia marcescens; 2 eq base)?
Its value is 7.4 Log.

And the mean fluorescence (red blood cells; 16C day 0.8)?
The mean fluorescence was 2.16.

What about the mean fluorescence (red blood cells; 16C day 2) of the same compound?
The mean fluorescence was 1.78.

What about the mean fluorescence (red blood cells; 16C day 7) of the same compound?
Its mean fluorescence is 1.58.

What about the mean fluorescence (red blood cells; 16C day 14) of the same compound?
Its mean fluorescence is 1.48.

And the mean fluorescence (red blood cells; 16C day 22)?
The mean fluorescence was 1.58.

What about the mean fluorescence (red blood cells; 16C day 28) of the same compound?
The mean fluorescence was 2.02.

And the mean fluorescence (red blood cells; 16C day 35)?
The mean fluorescence was 1.62.

And the mean fluorescence (red blood cells; 16C day 43)?
Its mean fluorescence is 1.8.
